Laboratory results reported in article PMC5394417, “Investigating the molecular mechanism of positive and negative allosteric modulators in the calcium-sensing receptor dimer” (Scientific Reports, 2017).

Tests used:
Format in all cases: cell-based
[1] = biological target: T1, S170A/E837A:F801A heterodimer (Rattus norvegicus, UniProt P48442, E837A/F801A/S170A); experiment: IP-One trans-activation assay, co-expression 1:1 in HEK293T
T1 construct: mGluR5 signal peptide (N); expressed in transfected cells; host or cells: HEK293T
Protocol: (§1) Human embryonic kidney (HEK) 293T cells were cultured in DMEM supplemented with 10% dFBS and 1% P/S at 37 °C and 5% CO2. 48 h prior to assay, transient transfection was performed using Lipofectamine 2000 as the transfection reagent. White opaque 96-well culture plates (PerkinElmer, Waltham, MA, USA) were used for the ELISA and the TR-FRET dimerization assay, while clear tissue culture treated 96-well plates (Corning, Corning, NY, USA) were used for the IP-One assay. Both plate types were coated with poly-D-lysine before addition of cells and transfection mix. 0.25 μl/well of Lipofectamine 2000 were diluted in 25 μl/well of Opti-MEM and incubated at room temperature (RT) for 5 min. 0.03 μg/well of DNA was diluted in 25 μl/well of Opti-MEM, and subsequently mixed with the Lipofectamine 2000 dilution and incubated 20 min at RT before addition to the plates. Cell suspensions of 170.000 HEK293T cells/mL were prepared in complete growth medium and 100 μl/well (17.000 cells/well) was added to the plates, which were incubated for 48 h at 37 °C and 5% CO2 before performing assays.
(§2) Functional activity was measured using the IP-One assay, which is an IP1 accumulation assay. For agonist testing, ligands were prepared in final concentrations in ligand buffer (HBSS, 20 mM HEPES, pH 7.4 supplemented with 20 mM LiCl). Cells were washed once with 100 μl/well of assay buffer (HBSS, 20 mM HEPES, pH 7.4) and 50 μl/well of agonist solution was added after which plates were incubated at 37 °C for 30 min. Subsequently, ligand solutions were removed and cells were washed with 100 μl/well of assay buffer. Cell lysis was performed by addition of 30 μl/well of IP-One Conjugate & Lysis Buffer (Cisbio Bioassays, Codolet, France) and plates were incubated at RT for 30 min. Afterwards, 30 μl/well of assay buffer was added to dilute the cell lysate. 10 μl/well of cell lysate was transferred from the 96-well plate to a 384-well Optiplate and 10 μl/well of detection solution (Assay buffer + 2.5% of anti-IP1 antibody cryptate Terbium conjugate + 2.5% IP1-d2 conjugate (Cisbio Bioassays, Codolet, France)) was also added. The 384-well plate was incubated for 1 h at RT in dark before being measured on an EnVision plate reader (PerkinElmer, Waltham, MA, USA). Upon excitation at 340 nm, emission at 615 nm and 665 nm was measured, and the FRET ratio (665 nm/615 nm) was converted to IP1 concentrations by interpolating values from an IP1 standard curve generated from a provided IP1 calibrator (Cisbio Bioassays, Codolet, France). When testing allosteric modulators, cells were pre-incubated for 30 min at 37 °C with 50 μl/well of ligand buffer supplemented with allosteric modulator and a final concentration of 1% DMSO. Afterwards, the buffer solution was removed and 50 μl/well of agonist solution in ligand buffer supplemented with allosteric modulator and a final concentration of 1% DMSO was added. Plates were incubated for 30 min at 37 °C followed by one wash in 100 μl/well of assay buffer. Cell lysis and detection was performed as described above.

HA-CaSR WT = biological target: T2, HA-CaSR WT (Rattus norvegicus, UniProt P48442); experiment: IP-One assay (IP1 accumulation, Gq signaling), HEK293T transiently transfected
T2 construct: mGluR5 signal peptide (N); expressed in transfected cells; host or cells: HEK293T
T2 sequence (P48442 20-1079): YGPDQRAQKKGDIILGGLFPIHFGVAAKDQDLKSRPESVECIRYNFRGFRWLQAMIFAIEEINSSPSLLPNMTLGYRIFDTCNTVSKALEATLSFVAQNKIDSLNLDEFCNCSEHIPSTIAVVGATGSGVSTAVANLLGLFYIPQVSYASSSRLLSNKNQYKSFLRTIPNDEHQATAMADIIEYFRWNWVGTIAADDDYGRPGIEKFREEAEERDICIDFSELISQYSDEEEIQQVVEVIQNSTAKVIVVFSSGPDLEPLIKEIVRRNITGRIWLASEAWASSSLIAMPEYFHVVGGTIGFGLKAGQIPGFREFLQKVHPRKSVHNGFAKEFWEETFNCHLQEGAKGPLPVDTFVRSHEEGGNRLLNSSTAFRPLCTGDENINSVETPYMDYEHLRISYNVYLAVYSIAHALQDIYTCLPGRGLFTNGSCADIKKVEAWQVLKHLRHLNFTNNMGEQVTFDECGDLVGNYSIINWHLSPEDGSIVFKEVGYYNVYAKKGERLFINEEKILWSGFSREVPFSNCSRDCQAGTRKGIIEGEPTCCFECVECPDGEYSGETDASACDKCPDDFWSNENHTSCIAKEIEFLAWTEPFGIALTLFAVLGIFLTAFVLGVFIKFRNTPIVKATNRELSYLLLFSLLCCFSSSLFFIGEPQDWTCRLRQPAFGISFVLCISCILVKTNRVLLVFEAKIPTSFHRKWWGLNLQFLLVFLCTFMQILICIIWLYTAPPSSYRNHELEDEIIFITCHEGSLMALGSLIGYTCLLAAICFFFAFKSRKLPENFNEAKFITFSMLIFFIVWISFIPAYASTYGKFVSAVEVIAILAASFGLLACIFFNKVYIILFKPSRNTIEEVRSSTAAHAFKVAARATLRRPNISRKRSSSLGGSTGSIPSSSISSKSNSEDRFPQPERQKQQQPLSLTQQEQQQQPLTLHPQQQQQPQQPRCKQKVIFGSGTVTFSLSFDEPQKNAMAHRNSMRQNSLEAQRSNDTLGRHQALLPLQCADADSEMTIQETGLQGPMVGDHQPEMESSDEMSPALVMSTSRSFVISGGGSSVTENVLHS
Protocol: as §1, §2

myc-CaSR-F801A = biological target: T3, myc-CaSR-F801A (Rattus norvegicus, UniProt P48442, F801A); experiment: IP-One assay, co-expression with pEGFPN1 in HEK293T; details: concentrations up to 45 mM Ca^2+
T3 construct: mGluR5 signal peptide (N); expressed in transfected cells; host or cells: HEK293T
Protocol: as §1, with “Cell suspensions of 170.000 HEK293T cells/mL were prepared in complete growth medium and 100 μl/well (17.000 cells/well) was added to the plates, which were incubated for 48 h at 37 °C and 5% CO2 before performing assays.” left out
Functional activity was measured using the IP-One assay, which is an IP1 accumulation assay. […] The 384-well plate was incubated for 1 h at RT in dark before being measured on an EnVision plate reader (PerkinElmer, Waltham, MA, USA). Upon excitation at 340 nm, emission at 615 nm and 665 nm was measured, and the FRET ratio (665 nm/615 nm) was converted to IP1 concentrations by interpolating values from an IP1 standard curve generated from a provided IP1 calibrator (Cisbio Bioassays, Codolet, France). […]

HA-CaSR WT + myc CaSR-WT = biological target: T4, HA-CaSR WT + myc CaSR-WT (Rattus norvegicus, UniProt P48442); experiment: IP-One assay, co-expression 1:1 in HEK293T
T4 construct: mGluR5 signal peptide (N); expressed in transfected cells; host or cells: HEK293T
T4 sequence (P48442 20-1079) 1: T2 sequence (P48442 20-1079)
T4 sequence (P48442 20-1079) 2: T2 sequence (P48442 20-1079)
Protocol: as §1
as §2, with “Afterwards, the buffer solution was removed and 50 μl/well of agonist solution in ligand buffer supplemented with allosteric modulator and a final concentration of 1% DMSO was added. Plates were incubated for 30 min at 37 °C followed by one wash in 100 μl/well of assay buffer. Cell lysis and detection was performed as described above.” left out

T1 sequence (P48442 20-1079 S170A/E837A): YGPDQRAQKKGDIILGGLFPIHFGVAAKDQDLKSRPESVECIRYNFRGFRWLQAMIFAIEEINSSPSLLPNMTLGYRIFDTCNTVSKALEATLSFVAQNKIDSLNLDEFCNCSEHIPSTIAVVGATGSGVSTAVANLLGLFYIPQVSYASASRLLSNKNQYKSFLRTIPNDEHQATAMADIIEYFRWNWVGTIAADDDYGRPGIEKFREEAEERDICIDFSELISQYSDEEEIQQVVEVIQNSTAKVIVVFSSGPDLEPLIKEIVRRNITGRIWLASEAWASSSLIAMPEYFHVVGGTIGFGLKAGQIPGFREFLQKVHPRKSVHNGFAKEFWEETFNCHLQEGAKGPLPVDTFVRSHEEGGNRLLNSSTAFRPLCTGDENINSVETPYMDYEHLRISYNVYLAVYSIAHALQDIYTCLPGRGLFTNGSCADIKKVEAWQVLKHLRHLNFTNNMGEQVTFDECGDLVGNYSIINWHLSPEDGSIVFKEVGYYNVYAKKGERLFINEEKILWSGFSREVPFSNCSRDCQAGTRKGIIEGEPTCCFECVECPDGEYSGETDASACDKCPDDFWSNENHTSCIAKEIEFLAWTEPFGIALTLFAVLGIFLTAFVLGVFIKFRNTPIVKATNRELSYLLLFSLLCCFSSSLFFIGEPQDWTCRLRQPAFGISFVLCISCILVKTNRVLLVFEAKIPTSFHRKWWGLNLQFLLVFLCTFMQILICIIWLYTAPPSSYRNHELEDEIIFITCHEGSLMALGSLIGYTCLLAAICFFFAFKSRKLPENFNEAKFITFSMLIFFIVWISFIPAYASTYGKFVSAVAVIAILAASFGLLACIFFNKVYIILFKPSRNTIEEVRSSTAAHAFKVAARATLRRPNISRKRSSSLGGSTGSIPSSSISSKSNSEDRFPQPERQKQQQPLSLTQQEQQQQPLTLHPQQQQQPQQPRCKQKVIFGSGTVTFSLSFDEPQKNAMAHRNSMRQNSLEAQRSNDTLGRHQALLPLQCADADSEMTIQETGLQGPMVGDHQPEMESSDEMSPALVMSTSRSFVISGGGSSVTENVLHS
T1 sequence (P48442 20-1079 F801A): as the sequence (P48442 20-1079 S170A/E837A) above, with A151S, F782A, A818E counted along it
T3 sequence (P48442 20-1079 F801A): as the sequence (P48442 20-1079 S170A/E837A) above, with A151S, F782A, A818E counted along it

| potentiation of Ca^2+-mediated response ([1]; S170A/E837A:F801A heterodimer, 0.05, 0.1 and 1 μM NPS R-568) | effect on Ca^2+-mediated response ([1]; S170A/E837A:F801A heterodimer, highest tested concentration of NPS R-568 (1 μM)) | EC50 (HA-CaSR WT; Ca^2+ alone, Table 1) [mM] | Hill coefficient ± S.E.M. (HA-CaSR WT; Ca^2+ alone, Table 1) | pEC50 ± S.E.M. (HA-CaSR WT; Ca^2+ alone, Table 1) | EC50 (HA-CaSR WT; Ca^2+ alone, Table 3) [mM] | pEC50 ± S.E.M. (HA-CaSR WT; Ca^2+ alone, Table 3) | Max ± S.E.M. (HA-CaSR WT; Ca^2+ alone, normalized to maximum response of WT CaSR, Table 3) | EC50 (HA-CaSR WT; Ca^2+ with 1 μM NPS R-568) [mM] | pEC50 ± S.E.M. (HA-CaSR WT; Ca^2+ with 1 μM NPS R-568) | Max ± S.E.M. (HA-CaSR WT; Ca^2+ with 1 μM NPS R-568, normalized to maximum response with Ca^2+ alone for the construct) [%] | EC50 (HA-CaSR WT; Ca^2+ with 5 μM NPS 2143) [mM] | pEC50 ± S.E.M. (HA-CaSR WT; Ca^2+ with 5 μM NPS 2143) | Max ± S.E.M. (HA-CaSR WT; Ca^2+ with 5 μM NPS 2143, normalized to maximum response with Ca^2+ alone for the construct) [%] | Max ± S.E.M. (HA-CaSR WT; normalized to maximum response of WT CaSR, Table 1) [%] | functional response to Ca^2+ (myc-CaSR-F801A) | EC50 (HA-CaSR WT + myc CaSR-WT; Ca^2+ alone) [mM] | Hill coefficient ± S.E.M. (HA-CaSR WT + myc CaSR-WT; Ca^2+ alone) | pEC50 ± S.E.M. (HA-CaSR WT + myc CaSR-WT; Ca^2+ alone) | Max ± S.E.M. (HA-CaSR WT + myc CaSR-WT; normalized to maximum response of WT CaSR) [%] | Structure (SMILES) |
| --- | --- | --- | --- | --- | --- | --- | --- | --- | --- | --- | --- | --- | --- | --- | --- | --- | --- | --- | --- | --- |
| no potentiation was observed | inhibited |  |  |  |  |  |  |  |  |  |  |  |  |  |  |  |  |  |  | COc1cccc([C@@H](C)NCCCc2ccccc2Cl)c1.Cl [NPS R-568, NPS R-568 hydrochloride] |
|  |  | 3.77 | 3.62 ± 0.48 | 2.42 ± 0.01 | 3.21 | 2.49 ± 0.01 | ≈100% | 1.28 | 2.89 ± 0.01 | 110 ± 11 | 8.4 | 2.08 ± 0.01 | 72 ± 5.6 | 100 | non-functional | 2.98 | 4.24 ± 0.19 | 2.53 ± 0.02 | 100 | [Ca+2] [Ca^2+] |
